From patent publication US20070232492A1, “Herbicidal Composition” (Ishihara Sangyo Kaisha, LTD., priority 2004, published 2007)
Like-named read-outs stand apart in the source and are kept apart here.

Assays:
Assay type in all cases: in vivo
[1] = tested on: barnyardgrass (Echinochloa oryzicola vasing); test: Growth inhibition of barnyardgrass in paddy soil pots, application under submerged condition, visual rating (observed value) and Colby expected value; settings: for inhibition at 100 g/ha / inhibition at 200 g/ha / inhibition at 150 g/ha / inhibition at 300 g/ha: Echinochloa oryzicola, soil, 504 h; for inhibition at 100 g/ha: 1 g/a; for inhibition at 100 g/ha / inhibition at 200 g/ha: read-out: Growth inhibition rate (%) Observed; for inhibition at 200 g/ha: 2 g/a; for inhibition at 150 g/ha: read-out: Growth inhibition rate (%) Observed, 1.5 g/a
Procedure, shortened: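 Barnyardgrass (Echinochloa oryzicola vasing) seeds were sown in paddy field soil in 1/10,000 are pots and kept irrigated at a water depth of 3.5 cm. Wettable powders of the active ingredients were diluted with water and applied under submerged conditions at the prescribed amounts. Growth was visually scored from 0% (as untreated) to 100% (complete kill), and expected values were calculated with Colby's formula.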

[2] = tested on: false pimpernel (Lindernia pyxidaria), abunome (Dopatrium junceum), long stem waterwort (Elatine triandra SCHK.) and toothcup (Rotala india); test: Growth inhibition of mixed broadleaf paddy weeds in paddy soil pots, application under submerged condition, visual rating and Colby expected value; settings: 0.22 g/a
Source text: (§1) When the herbicidal activity in a case where two active ingredients are combined, is larger than the simple sum of the respective herbicidal activities of the two active ingredients (the expected activity), it is called a synergistic effect. The activity expected by the combination of two active ingredients can be calculated as follows (Colby S. R., “Weed”, vol. 15, p. 20-22, 1967). E=p+q−(p×q÷100) where p: growth inhibition rate when treated with x (g/a) of herbicide X,
(§2) q: growth inhibition rate when treated with y (g/a) of herbicide Y,
(§3) E: growth inhibition rate expected when treated with x (g/a) of herbicide X and y (g/a) of herbicide Y.
(§4) Namely, when the actual growth inhibition rate (observed value) is larger than the growth inhibition rate by the above calculation (expected value), the activity by the combination can be regarded as showing a synergistic effect.
(§5) Growth inhibition rate (%)=0% (equivalent to the non-treated area) to 100% (complete kill)
(§6) Paddy field soil was put into a 1/1,700 are pot, and mixed seeds of false pimpernel (Lindernia pyxidaria), abunome (Dopatrium junceum), long stem waterwort (Elatine triandra SCHK.) and toothcup (Rotala india) were sown and left to stand under an irrigated condition with a water depth of 3.5 cm. When false pimpernel reached one leaf-pair stage, wettable powders of compound A2 and compound (B1.2) were, respectively, diluted with water and applied under submerged condition so that the active ingredients became the prescribed amounts, respectively. The state of growth was visually observed 21 days after application, and evaluation and calculation were carried out in the same manner as in the above Test Example 1.
(§7) Paddy field soil was put into a 1/1,700 are pot, and mixed seeds of false pimpernel (Lindernia pyxidaria), abunome (Dopatrium junceum), long stem waterwort (Elatine triandra SCHK.) and toothcup (Rotala india) were sown and left to stand under an irrigated condition with a water depth of 3.5 cm. When false pimpernel reached two leaf-pair stage, a wettable powder of compound A2 and an emulsifiable concentrate of compound (B8.1) were, respectively, diluted with water and applied under submerged condition so that the active ingredients became the prescribed amounts, respectively. The state of growth was visually observed 22 days after application, and evaluation and calculation were carried out in the same manner as in the above Test Example 1.

[3] = tested on: barnyardgrass (Echinochloa oryzicola vasing); test: Growth inhibition of barnyardgrass in paddy soil pots, foliar application with a small sprayer, visual rating and Colby expected value; settings: 3.0 to 3.3 leaf stage, 21 days after application
Source text: as §1, §2, §3, §4, §5
Paddy field soil was put into a 1/10,000 are pot, and seeds of barnyardgrass (Echinochloa oryzicola vasing) were sown and left to stand under an irrigated condition with a water depth of 3.5 cm. When barnyardgrass reached 3.0 to 3.3 leaf stage, a wettable powder of compound A2 and a water-based suspension of compound (B11.1) were, respectively, diluted with water in an amount of 1,000 liter/ha, followed by foliar application with a small sprayer. The state of growth was visually observed 21 days after application, and evaluation and calculation were carried out in the same manner as in the above Test Example 1.

[4] = tested on: rice (Oryza sativa var. Nihonbare); test: Growth inhibition (phytotoxicity) of transplanted rice by compound A2 with or without compound D, application under submerged condition, visual rating 7 and 21 days after application; settings: Compound A2 60 g/ha, Compound D not applied, applied 5 days after implantation
Source text: as §5
Paddy field soil was put into a 1/500,000 hectare pot, harrowed and irrigated with a depth of 3 cm. On the next day, rice (Oryza sativa var. Nihonbare) at 2 leaf stage was implanted with a depth of 3 cm. A wettable powder of compound A2 and a wettable powder of compound D were, respectively, diluted with water and applied under submerged condition 5 days after implantation so that the active ingredients became the prescribed amounts, respectively. The state of growth of rice was visually observed 7 days and 21 days after application, and the growth inhibition rate (%) was evaluated in the same is manner as in the above Test Example 1.

[5] = Growth inhibition of mixed broadleaf paddy weeds in paddy soil pots, application under submerged condition, visual rating and Colby expected value; settings: mixed broadleaf paddy weeds, soil, 528 h, read-out: Growth inhibition rate (%) Observed
Source text: as §1, §2, §3, §4, §5, §6, §7

[6] = 2.0 to 2.5 leaf stage, 21 days after application
[7] = 2.8 to 3.2 leaf stage, 21 days after application, Test Examples 39-43

CCCOCCN(C(=O)CCl)c1c(CC)cccc1CC [Compound (B3.1), pretilachlor]
inhibition at 100 g/ha [1, 6]: 17%
inhibition at 100 g/ha [1, 7]: 0%
inhibition at 200 g/ha [1, 6]: 33%
inhibition at 200 g/ha [1, 7]: 0%

COCC(=O)OC(c1ncccc1S(=O)(=O)NC(=O)Nc1nc(OC)cc(OC)n1)C(C)F (stereo not drawn) [Compound A2, flucetosulfuron]
Growth inhibition rate (%) Observed ([2]; false pimpernel one leaf-pair stage, 21 days after application): 90%
Growth inhibition rate (%) Observed ([2]; false pimpernel two leaf-pair stage, 22 days after application): 65%
Growth inhibition rate (%) Observed ([1]; 0.055 g/a, 2.8 to 3.2 leaf stage, 21 days after application): 55%
Growth inhibition rate (%) Observed ([1]; 0.083 g/a, 2.1 to 3.2 leaf stage, 21 days after application): 90%
Growth inhibition rate (%) Observed ([1]; 0.083 g/a, 2.1 to 3.2 leaf stage, 22 days after application): 90%
Growth inhibition rate (%) Observed ([1]; 0.083 g/a, 2.5 to 3.0 leaf stage, 22 days after application): 67%
Growth inhibition rate (%) Observed ([1]; 0.083 g/a, 2.8 to 3.2 leaf stage, 19 days after application, Test Examples 62-65): 55%
Growth inhibition rate (%) Observed ([1]; 0.083 g/a, 2.8 to 3.2 leaf stage, 21 days after application): 65%
Growth inhibition rate (%) Observed ([1]; 0.083 g/a, 2.8 to 3.2 leaf stage, 21 days after application, Test Examples 39-43): 55%
Growth inhibition rate (%) Observed ([1]; 0.11 g/a, 2.0 to 2.5 leaf stage, 21 days after application): 90%
Growth inhibition rate (%) Observed ([1]; 0.11 g/a, 2.1 to 3.2 leaf stage, 21 days after application): 92%
Growth inhibition rate (%) Observed ([1]; 0.11 g/a, 2.1 to 3.2 leaf stage, 22 days after application): 92%
Growth inhibition rate (%) Observed ([1]; 0.11 g/a, 2.4 to 3.2 leaf stage, 29 days after application, Test Example 45): 96%
Growth inhibition rate (%) Observed ([1]; 0.11 g/a, 2.5 to 3.0 leaf stage, 22 days after application): 83%
Growth inhibition rate (%) Observed ([1]; 0.11 g/a, 2.8 to 3.2 leaf stage, 19 days after application, Test Examples 62-65): 68%
Growth inhibition rate (%) Observed ([1]; 0.11 g/a, 2.8 to 3.2 leaf stage, 21 days after application): 75%
Growth inhibition rate (%) Observed ([1]; 0.11 g/a, 2.8 to 3.2 leaf stage, 21 days after application, Test Examples 39-43): 70%
Growth inhibition rate (%) Observed ([1]; 0.165 g/a, 2.0 to 2.5 leaf stage, 21 days after application): 90%
Growth inhibition rate (%) Observed ([1]; 0.165 g/a, 2.1 to 3.2 leaf stage, 21 days after application): 96%
Growth inhibition rate (%) Observed ([1]; 0.165 g/a, 2.1 to 3.2 leaf stage, 22 days after application): 96%
Growth inhibition rate (%) Observed ([1]; 0.165 g/a, 2.5 to 3.0 leaf stage, 22 days after application): 89%
Growth inhibition rate (%) Observed ([1]; 0.165 g/a, 2.8 to 3.2 leaf stage, 19 days after application, Test Examples 62-65): 73%
Growth inhibition rate (%) Observed ([1]; 8.3 g/ha, 3 leaf stage, 22 days after application, Test Example 36): 67%
Growth inhibition rate (%) Observed ([1]; 8.3 g/ha, 3 leaf stage, 22 days after application, Test Example 38): 83%
Growth inhibition rate (%) Observed ([1]; 11 g/ha, 3 leaf stage, 22 days after application, Test Example 36): 83%
Growth inhibition rate (%) Observed ([1]; 11 g/ha, 3 leaf stage, 22 days after application, Test Example 38): 96%
Growth inhibition rate (%) Observed ([1]; 16.5 g/ha, 3 leaf stage, 22 days after application, Test Example 36): 89%
Growth inhibition rate (%) Observed ([1]; 16.5 g/ha, 3 leaf stage, 22 days after application, Test Example 38): 98%
Growth inhibition rate (%) Observed ([3]; 0.083 g/a): 23%
Growth inhibition rate (%) Observed ([3]; 0.11 g/a): 50%
Growth inhibition rate (%) Observed ([3]; 0.165 g/a): 60%
Growth inhibition rate (%) (average) 7 days ([4]; 7 days after application): 23%
Growth inhibition rate (%) (average) 21 days ([4]; 21 days after application): 33%

CCS(=O)(=O)Oc1ccc2c(c1)C(C)(C)CO2 [Compound (B8.1), benfuresate]
inhibition at 1200 g/ha [5]: 70%
inhibition at 150 g/ha [1, 6]: 10%
inhibition at 150 g/ha ([1]; 3.0 to 3.3 leaf stage, 21 days after application): 0%
inhibition at 300 g/ha ([1]; read-out: Growth inhibition rate (%) Observed, 3 g/a, 2.0 to 2.5 leaf stage, 21 days after application): 33%
inhibition at 300 g/ha ([1]; read-out: Growth inhibition rate (%) Observed, 3.0 g/a, 3.0 to 3.3 leaf stage, 21 days after application): 0%
